Legend:
[1] = molecular target: Beta-2 adrenergic receptor (Homo sapiens, UniProt P07550); experiment: DRUGMATRIX: Adrenergic beta2 radioligand binding (ligand: [3H] CGP-12177); type: cell membranes, Membrane; settings: cho; Not Active = under 50% inhibition at 10 µM
[2] = DRUGMATRIX: Tumor Necrosis Factor (TNF), Non-Selective radioligand binding (ligand: [125I] TNF-alpha); type: cell membranes, Membrane; settings: u-937; Not Active = under 50% inhibition at 10 µM
[3] = molecular target: T1, Vasoactive intestinal polypeptide receptor 1 (Homo sapiens, UniProt P32241); type: cell membranes, Membrane; settings: ht-29; note: in other assays of this panel Not Active means under 50% inhibition at 10 µM
T1 sequence (P32241 whole entry): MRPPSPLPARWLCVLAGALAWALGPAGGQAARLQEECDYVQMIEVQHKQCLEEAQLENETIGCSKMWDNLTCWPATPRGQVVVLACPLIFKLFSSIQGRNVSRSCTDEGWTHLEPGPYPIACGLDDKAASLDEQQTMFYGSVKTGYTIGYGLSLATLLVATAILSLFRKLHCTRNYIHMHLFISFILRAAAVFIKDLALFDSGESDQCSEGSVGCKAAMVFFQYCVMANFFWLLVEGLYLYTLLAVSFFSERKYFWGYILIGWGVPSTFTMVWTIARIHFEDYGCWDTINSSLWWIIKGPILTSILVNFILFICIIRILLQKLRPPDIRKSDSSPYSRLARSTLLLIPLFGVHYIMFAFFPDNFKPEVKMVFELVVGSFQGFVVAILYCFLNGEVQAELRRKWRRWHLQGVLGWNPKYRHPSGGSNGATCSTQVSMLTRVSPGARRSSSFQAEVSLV

[4] = molecular target: T2, Cholecystokinin receptor type A (Homo sapiens, UniProt P32238); type: cell membranes, Membrane; settings: 1321-n1; note: in other assays of this panel Not Active means under 50% inhibition at 10 µM
T2 sequence (P32238 whole entry): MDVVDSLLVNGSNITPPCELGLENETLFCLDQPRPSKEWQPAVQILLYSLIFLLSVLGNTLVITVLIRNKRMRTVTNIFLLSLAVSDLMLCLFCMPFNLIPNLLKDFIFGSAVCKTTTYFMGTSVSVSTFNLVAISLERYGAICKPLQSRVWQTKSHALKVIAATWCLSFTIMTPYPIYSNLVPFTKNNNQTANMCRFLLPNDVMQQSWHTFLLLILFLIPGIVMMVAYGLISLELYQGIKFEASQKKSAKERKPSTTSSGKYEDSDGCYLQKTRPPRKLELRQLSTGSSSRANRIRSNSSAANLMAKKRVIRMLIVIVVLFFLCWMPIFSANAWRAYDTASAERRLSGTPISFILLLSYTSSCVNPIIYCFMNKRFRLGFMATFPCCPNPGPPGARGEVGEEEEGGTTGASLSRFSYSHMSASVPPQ

[5] = DRUGMATRIX: GABAA, Muscimol, Central radioligand binding (ligand: [3H] Muscimol); type: cell membranes, Rattus norvegicus, Wistar, Brain, Membrane; settings: Not Active = under 50% inhibition at 10 µM
Melanocortin receptor 5 = Melanocortin receptor 5 (Homo sapiens, UniProt P33032); type: cell membranes, HEK293, Membrane; settings: hek293; note: in other assays of this panel Not Active means under 50% inhibition at 10 µM
Sequence of Melanocortin receptor 5 (P33032 whole entry): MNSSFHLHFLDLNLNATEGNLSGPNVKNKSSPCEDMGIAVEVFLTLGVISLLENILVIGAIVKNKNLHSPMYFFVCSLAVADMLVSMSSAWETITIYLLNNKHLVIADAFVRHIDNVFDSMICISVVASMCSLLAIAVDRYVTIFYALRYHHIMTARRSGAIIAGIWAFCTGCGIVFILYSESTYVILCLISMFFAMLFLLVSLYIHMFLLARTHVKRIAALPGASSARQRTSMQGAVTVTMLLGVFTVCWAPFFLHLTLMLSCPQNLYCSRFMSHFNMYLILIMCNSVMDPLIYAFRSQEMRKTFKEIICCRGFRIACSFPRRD

[6] = molecular target: T3, Amine oxidase [flavin-containing] A (Homo sapiens, UniProt P21397); experiment: DRUGMATRIX: Monoamine Oxidase MAO-A enzyme inhibition (substrate: Kynuramine); set-up: species or system BTI-TN-5B1-4; settings: Not Active = under 50% inhibition at 10 µM
T3 sequence (P21397 whole entry): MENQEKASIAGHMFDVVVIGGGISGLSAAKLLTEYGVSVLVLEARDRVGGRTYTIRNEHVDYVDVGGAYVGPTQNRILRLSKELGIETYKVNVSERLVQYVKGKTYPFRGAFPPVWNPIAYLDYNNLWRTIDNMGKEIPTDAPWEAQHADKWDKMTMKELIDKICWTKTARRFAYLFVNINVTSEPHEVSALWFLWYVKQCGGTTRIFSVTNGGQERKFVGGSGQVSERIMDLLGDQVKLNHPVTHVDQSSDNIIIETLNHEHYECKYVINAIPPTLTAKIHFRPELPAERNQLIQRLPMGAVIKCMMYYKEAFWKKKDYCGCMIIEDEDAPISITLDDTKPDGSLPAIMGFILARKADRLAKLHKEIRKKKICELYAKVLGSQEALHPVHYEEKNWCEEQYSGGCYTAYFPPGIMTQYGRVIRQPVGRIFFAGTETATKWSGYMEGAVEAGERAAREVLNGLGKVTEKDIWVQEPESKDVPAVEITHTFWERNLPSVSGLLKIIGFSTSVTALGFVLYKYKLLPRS

[7] = molecular target: T4, Neuropeptide Y receptor type 1 (Homo sapiens, UniProt P25929); type: cell membranes, Membrane; settings: sk-n-mc; note: in other assays of this panel Not Active means under 50% inhibition at 10 µM
T4 sequence (P25929 whole entry): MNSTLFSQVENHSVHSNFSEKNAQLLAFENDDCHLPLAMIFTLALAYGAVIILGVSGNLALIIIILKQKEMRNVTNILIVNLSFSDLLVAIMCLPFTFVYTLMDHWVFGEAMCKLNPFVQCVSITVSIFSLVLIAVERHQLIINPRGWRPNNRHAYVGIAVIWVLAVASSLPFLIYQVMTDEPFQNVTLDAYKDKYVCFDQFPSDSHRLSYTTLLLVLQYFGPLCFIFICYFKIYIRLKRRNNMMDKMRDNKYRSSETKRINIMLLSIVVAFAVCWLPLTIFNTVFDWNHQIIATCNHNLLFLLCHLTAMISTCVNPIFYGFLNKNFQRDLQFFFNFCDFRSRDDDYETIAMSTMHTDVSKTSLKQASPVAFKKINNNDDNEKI

Progesterone receptor = molecular target: T5, Progesterone receptor (Bos taurus, UniProt Q690N0); experiment: DRUGMATRIX: Progesterone radioligand binding (ligand: [3H] R-5020); type: tissue-based, Uterus; settings: Not Active = under 50% inhibition at 10 µM
T5 sequence (Q690N0 whole entry): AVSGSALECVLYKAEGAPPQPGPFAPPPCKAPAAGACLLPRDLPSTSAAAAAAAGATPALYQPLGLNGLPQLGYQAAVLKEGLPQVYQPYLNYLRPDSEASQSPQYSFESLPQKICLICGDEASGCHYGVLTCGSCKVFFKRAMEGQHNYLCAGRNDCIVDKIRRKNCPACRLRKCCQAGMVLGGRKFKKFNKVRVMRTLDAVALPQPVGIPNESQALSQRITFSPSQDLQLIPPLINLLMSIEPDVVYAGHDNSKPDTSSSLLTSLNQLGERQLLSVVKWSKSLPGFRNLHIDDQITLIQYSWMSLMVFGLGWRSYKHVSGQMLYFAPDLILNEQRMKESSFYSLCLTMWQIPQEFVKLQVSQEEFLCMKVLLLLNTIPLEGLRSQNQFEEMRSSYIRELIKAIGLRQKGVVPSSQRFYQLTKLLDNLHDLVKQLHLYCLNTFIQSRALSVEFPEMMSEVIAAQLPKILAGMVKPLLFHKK

[8] = molecular target: Protein phosphatase 3 catalytic subunit alpha (Homo sapiens, UniProt Q08209); set-up: species or system Escherichia coli
Cytochrome P450 2C9 = Cytochrome P450 2C9 (Homo sapiens, UniProt P11712); settings: bti-tn-5b1-4; note: in other assays of this panel Not Active means under 50% inhibition at 10 µM
Sequence of Cytochrome P450 2C9 (P11712 whole entry): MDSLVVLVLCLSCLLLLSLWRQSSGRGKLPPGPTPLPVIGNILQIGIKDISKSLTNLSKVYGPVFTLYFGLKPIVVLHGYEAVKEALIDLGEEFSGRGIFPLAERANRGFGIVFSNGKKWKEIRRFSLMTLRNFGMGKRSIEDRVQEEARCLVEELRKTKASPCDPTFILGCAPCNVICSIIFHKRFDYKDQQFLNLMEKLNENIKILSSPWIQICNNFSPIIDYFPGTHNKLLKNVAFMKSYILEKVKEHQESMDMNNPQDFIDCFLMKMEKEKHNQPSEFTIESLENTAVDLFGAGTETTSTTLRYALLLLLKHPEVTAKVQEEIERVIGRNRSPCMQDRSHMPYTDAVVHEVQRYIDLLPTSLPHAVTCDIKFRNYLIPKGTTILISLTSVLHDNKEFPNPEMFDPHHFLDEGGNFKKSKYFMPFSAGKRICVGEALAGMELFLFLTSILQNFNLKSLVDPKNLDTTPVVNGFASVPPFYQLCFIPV

Sequence of Beta-2 adrenergic receptor (P07550 whole entry): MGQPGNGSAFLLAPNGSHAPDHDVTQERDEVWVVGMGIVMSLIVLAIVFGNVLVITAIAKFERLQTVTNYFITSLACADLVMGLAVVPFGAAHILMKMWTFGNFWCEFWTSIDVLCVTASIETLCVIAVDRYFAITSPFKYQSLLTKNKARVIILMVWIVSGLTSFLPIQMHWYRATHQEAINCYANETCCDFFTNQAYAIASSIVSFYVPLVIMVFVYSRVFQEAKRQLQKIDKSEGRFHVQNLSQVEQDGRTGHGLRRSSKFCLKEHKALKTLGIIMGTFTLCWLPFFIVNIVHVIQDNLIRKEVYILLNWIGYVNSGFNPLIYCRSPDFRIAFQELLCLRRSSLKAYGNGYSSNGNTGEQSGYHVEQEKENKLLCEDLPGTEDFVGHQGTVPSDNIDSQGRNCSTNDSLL

Row | Compound | IC50 [1] | IC50 [2] | Ki [2] | IC50 [3] | IC50 [4] | IC50 [5] | Ki [5] | IC50 (Melanocortin receptor 5) | IC50 ([6]; bti-tn-5b1-4) | IC50 [7] | IC50 (Progesterone receptor) | IC50 [8] | IC50 (Cytochrome P450 2C9) | Ki (Cytochrome P450 2C9) | IC50 (Progesterone receptor; read-out: IC50) | Ki (Progesterone receptor; read-out: Ki) | IC50 ([6]; read-out: IC50)
1 | CC=CC(=O)N(CC)c1ccccc1C | Not Active | Not Active | Not Active | Not Active | Not Active | Not Active | Not Active | Not Active | Not Active | Not Active | Not Active | Not Active | Not Active | Not Active | – | – | –
2 | CC(=O)OCC(=O)[C@@]1(OC(C)=O)[C@@H](C)C[C@H]2[C@@H]3C[C@H](F)C4=CC(=O)C=C[C@]4(C)[C@@]3(F)[C@@H](O)C[C@@]21C [DIFLORASONE DIACETATE] | Not Active | Not Active | Not Active | Not Active | Not Active | Not Active | Not Active | Not Active | Not Active | Not Active | – | Not Active | Not Active | Not Active | 116 nM | 15 nM | –
3 | CC1(C)S[C@@H]2[C@H](NC(=O)[C@H](N)c3ccc(O)cc3)C(=O)N2[C@H]1C(=O)O [AMOXICILLIN] | Not Active | Not Active | Not Active | Not Active | Not Active | Not Active | Not Active | Not Active | Not Active | Not Active | Not Active | Not Active | Not Active | Not Active | – | – | –
4 | C=C(C)[C@@H]1[C@H]2OC(=O)[C@@H]1[C@]1(O)C[C@H]3O[C@]34C(=O)O[C@H]2[C@]14C [PICROTOXININ] | Not Active | Not Active | Not Active | Not Active | Not Active | Not Active | Not Active | Not Active | Not Active | Not Active | Not Active | Not Active | Not Active | Not Active | – | – | –
5 | c1ccc2c(c1)cc1ccc3cccc4ccc2c1c34 | Not Active | Not Active | Not Active | Not Active | Not Active | Not Active | Not Active | Not Active | – | Not Active | Not Active | Not Active | Not Active | Not Active | – | – | 5970 nM
6 | C[C@]12CCC(=O)C=C1CC[C@@H]1[C@@H]2C(=O)C[C@@]2(C)[C@H]1CC[C@]2(O)C(=O)CO [CORTISONE] | Not Active | Not Active | Not Active | Not Active | Not Active | Not Active | Not Active | Not Active | Not Active | Not Active | Not Active | Not Active | Not Active | Not Active | – | – | –
7 | CNCCC=C1c2ccccc2CCc2ccccc21 [NORTRIPTYLINE] | Not Active | Not Active | Not Active | Not Active | Not Active | Not Active | Not Active | Not Active | Not Active | Not Active | Not Active | Not Active | Not Active | Not Active | – | – | –
8 | CC[C@@]1(O)C(=O)OCc2c1cc1n(c2=O)Cc2cc3ccccc3nc2-1 [CAMPTOTHECIN] | Not Active | Not Active | Not Active | Not Active | Not Active | Not Active | Not Active | Not Active | Not Active | Not Active | Not Active | Not Active | Not Active | Not Active | – | – | –
9 | COc1ccc2c(c1)c(CC(=O)OCC(=O)O)c(C)n2C(=O)c1ccc(Cl)cc1 [ACEMETACIN] | Not Active | Not Active | Not Active | Not Active | Not Active | Not Active | Not Active | Not Active | Not Active | Not Active | Not Active | Not Active | Not Active | Not Active | – | – | –
10 | N=C(N)NCCCCNC(=N)N.O=S(=O)(O)O [ARCAINE SULFATE] | Not Active | Not Active | Not Active | Not Active | Not Active | Not Active | Not Active | Not Active | Not Active | Not Active | Not Active | Not Active | Not Active | Not Active | – | – | –
